Values of other authors, collected in patent publication US20250278807A1, “MODERN MONETARY THEORY AND TRANSLATIONAL SCIENTIFIC RESEARCH” (priority 2025, published 2025).
Like-named read-outs stand apart in the source and are kept apart here.

Key:
[1] = tested on: other malignant cell cultures; conditions: in vitro
[2] = tested on: wide variety of cancer cells; conditions: in vitro
[3] = tested on: wide variety of cancer cells; conditions: in vivo
[4] = in vivo
thoracic atheroma = conditions: administered intraperitoneally, cholesterol-fed rabbits
[5] = molecular target: T1, beta amyloid peptide (1-40) aggregates (Homo sapiens, UniProt P05067); conditions: in vitro, aggregates formed with calcium ions; loss of Thioflavin T fluorescence
T1 construct: beta amyloid peptide (1-40)
T1 sequence (P05067 672-711 limits assumed): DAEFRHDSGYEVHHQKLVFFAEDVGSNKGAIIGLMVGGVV

[6] = in vivo; remark: listed apart in the source
[7] = tested on: chronic lumbar radicular pain; conditions: phase II trials, versus placebo

For `C[C@@H](O)C(=O)O[C@H](C)C(=O)O` [DLAD, D-Lactic Acid Dimer], the “inhibition of growth of melanoma tumors” value (melanoma tumors; in vivo) is listed as “inhibit growth”, the tumoricidal activity (melanoma tumors; intralesional application) is listed as “dose response tumoricidal activity” and the “inhibition of growth of other malignant cell cultures” value [1] is listed as “inhibit growth”. For the same compound, the “inhibition of melanoma cell proliferation” value (melanoma cell; compared to L-lactic acid dimer (P<0.0001)) was “conclusively shown”, the “efficacy at pH 7” value (melanoma cell; pH 7) was “lost efficacy” and the “inhibition of growth of cancer cells” value [2] was “inhibit growth”. For the same compound, the “inhibition of growth of cancer cells” value [3] was “inhibit growth”.
For `O=[14CH][C@H](O)[C@H](O)[C@H](O)CO` [D-ribose-1-C^14], the excretion after infusion [4] is listed as “excreted unchanged in the urine”.
For `O=C([O-])CC(O)(CC(=O)[O-])C(=O)[O-].[Na+].[Na+].[Na+]` [sodium citrate], the “effect on thoracic atheroma” value (thoracic atheroma) is given as “decreased thoracic atheroma”.
In the case of `O=C(O)CC(O)(CC(=O)O)C(=O)O` [citrate], the “dissolution of beta amyloid aggregates” value [5] is listed as “can be dissolved”.
For Choline citrate, the “effect on thoracic atheroma” value (thoracic atheroma) is listed as “decreased thoracic atheroma”.
In the case of `O=CC[C@@H](O)[C@H](O)[C@H](O)CO` [2DG, 2-Deoxy-D-Glucose], the “inhibition of growth of cancer cells” value [2] is listed as “inhibit growth” and the “inhibition of growth of cancer cells” value [3] is listed as “inhibit growth”.
For `CCN(CC)CCOC(=O)c1ccc(N)cc1` [Procaine], the oral bioavailability [6] is given as “orally bioavailable”.
In the case of `NCCCC[C@H](N)C(=O)O` [L-lysine], the “effect on absorption of glucose” value (blood glucose; concomitant administration of glucose with L-lysine) is given as “decrease the absorption of glucose”, the oral bioavailability (blood glucose; in vivo, po) is given as “well established” and the “effect on blood glucose” value (blood glucose; oral administration) is given as “lower blood glucose”.
In the case of `COc1c([C@H]2[C@H](C(=O)Nc3ccnc(C(N)=O)c3)O[C@@](C)(C(F)(F)F)[C@H]2C)ccc(F)c1F` [suzetrigine], the “efficacy in chronic lumbar radicular pain” value [7] is listed as “no better efficacy than placebo”.
